Results taken from patent publication US20250032477A1, “COMPOUNDS, PHARMACEUTICAL COMPOSITIONS, AND METHODS FOR THE TREATMENT, PREVENTION, OR MANAGEMENT OF HYPERPROLIFERATIVE DISORDERS” (VINCERX PHARMA GMBH, priority 2021, published 2025).
Where two headings read alike, the source gives them in different places.

Assays:
HT29 [1] = assay: Cytotoxicity in vitro in the presence and absence of legumain; assay type: cell-based; settings: Homo sapiens
NCI H292 [2] = assay: as above; assay type: cell-based; settings: Homo sapiens
SUM149 [3] = assay: as above; assay type: cell-based
786-O [4] = assay: Cytotoxicity in vitro in the presence and absence of elastase (MTT); assay type: cell-based, human; settings: Homo sapiens, 786-0, 786-O cells, 72 h, MTT
Procedure, shortened: (§1)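 Cells seeded 24 h beforehand, then treated in triplicate with compound (10^−5 to 10^−13 M) alone or with 10 nM elastase for 72 h at 37 °C. Proliferation measured by MTT (4 h reagent, overnight lysis, absorbance 570 nm), normalised to untreated cells.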

HT29 [5] = assay: as above; assay type: cell-based, human; settings: Homo sapiens, HT-29, HT29 cells, 72 h, MTT
Procedure, shortened: as §1

NCI H292 [6] = assay: as above; assay type: cell-based, human; settings: Homo sapiens, NCI H292 cells, 72 h, MTT
Procedure, shortened: as §1

SUM149 [7] = assay: as above; assay type: cell-based; settings: SUM149 cells, 72 h, MTT
Procedure, shortened: as §1

786-O [8] = assay: Cytotoxicity assay (Version 2), automated, AC50, with or without elastase; assay type: cell-based, human; settings: Homo sapiens, 786-0, 786-O cells, Version 2, activity concentration at −50%
Procedure: (§2) Cultivation of cells was performed according to standard procedures with the media recommended by the provider. The cells, in a total volume of 100 μL, were seeded in a 96-well plate with a white bottom (#3610). After a 24 h incubation period at 37° C. and […], the medium was exchanged by adding 90 μL fresh medium. The treatment started by adding the test compound in 10 μL of culture medium to the cells in triplicates. Concentrations ranging from 10^−5 M to 10^−13 M were chosen. Two identically treated sets of samples were prepared. One set was treated with the test compound alone, whereas to the second set the compound and 10 nM elastase was added followed by a 72 h incubation period at 37° C. and 5% CO2. The proliferation was detected using the MTT assay (ATCC). At the end of the incubation period the MTT reagent was added to all samples for 4 h. Lysis of the cells followed by addition of the detergent was done overnight. The formed dye was detected at 570 nm. The proliferation of untreated but otherwise identically handled cells was define as the […].
(§3) The Cytotoxicity assay (Version 2) was performed as above described. Some changes were applied as the assays were performed in an automated fashion and the IC50 values determination was changed. Here the change in metabolic activity of the cells, in percent, was calculated by normalization of the measured values to the absorbance values of medium containing wells without cells (=−100%) and the absorbance of the DMSO-treated cells (=0%). AC50 values (activity concentration at −50%) were determined by means of a 4 parameter Hill-fit using GeneData Screener software.

HT29 [9] = assay: as above; assay type: cell-based, human; settings: Homo sapiens, HT-29, HT29 cells, Version 2, activity concentration at −50%
Procedure: as §2, §3

NCI H292 [10] = assay: as above; assay type: cell-based, human; settings: Homo sapiens, NCI H292 cells, Version 2, activity concentration at −50%
Procedure: as §2, §3

SUM149 [11] = assay: as above; assay type: cell-based; settings: SUM149 cells, Version 2, activity concentration at −50%
Procedure: as §2, §3

in vitro = settings: human, Caco-2
Procedure: (§4) Caco-2: The cell permeability of a substance can be investigated by means of in vitro testing in a flux assay using Caco-2 cells [M. D. Troutman and D. R. Thakker, Pharm. Res. 20 (8), 1210-1224 (2003)]. For this purpose, the cells were cultured for 15-16 days on 24-well filter plates. For the determination of permeation, the respective test substance was applied in a HEPES buffer to the cells either apically (A) or basally (B) and incubated for 2 hours. After 0 hours and after 2 hours, samples were taken from the cis and trans compartments. The samples were separated by HPLC (Agilent 1200, Böblingen, Germany) using reverse phase columns. The HPLC system was coupled via a Turbo Ion Spray Interface to a Triple Quadropol mass spectrometer API 4000 (AB SCIEX Deutschland GmbH, Darmstadt, Germany). The permeability was evaluated on the basis of a Papp value, which was calculated using the formula published by Schwab et al. [D. Schwab et al., J. Med. Chem. 46, 1716-1725 (2003)]. A substance was classified as actively transported when the ratio of Papp (B-A) to Papp (A-B) (efflux ratio) was >2 or <0.5. Compounds with an efflux ratio of 0.5-2 are considered not actively transported. In Table 5, reference compounds are provided for comparison. Ref 1 is exatecan mesylate, Ref 2 is DXd, and Ref 3 is 10,11-methylenedioxy-camptothecin (FL118).

Caco-2 cells = assay: Caco-2 flux assay for cellular permeability; settings: Caco-2 cells; for Caco-2 Flux Papp A-B: apical to basal, 2 hours, HEPES buffer; for Caco-2 Flux Efflux ratio: ratio of Papp (B-A) to Papp (A-B), actively transported when >2 or <0.5
Procedure: as §4

In the case of `CC[C@@]1(O)C(=O)OCc2c1cc1n(c2=O)Cc2c-1nc1cc(F)c(C)c3c1c2[C@@H](NC(=O)[C@H](CC(N)=O)NC(=O)Cc1ccncc1)CC3` [Compound 10, N^1-[(1S,9S)-9-ethyl-5-fluoro-9-hydroxy-4-methyl-10,13-dioxo-2,3,9,10,13,15-hexahydro-1H,12H-benzo[de]pyrano[3′,4′:6,7]indolizino[1,2-b]quinolin-1-yl]-N^2-[(pyridin-4-yl)acetyl]-L-aspartamide], the IC50 (HT29 [1]; HT-29, read-out: HT29 IC50 w legumain) is reported as > 100 nM, the IC50 (HT29 [1]; HT-29, read-out: HT29 IC50 w/o) is reported as > 100 nM and the IC50 (NCI H292 [2]; NCI-H292, read-out: NCI H292 IC50 w legumain) is reported as > 100 nM. For the same compound, the IC50 (NCI H292 [2]; NCI-H292, read-out: NCI H292 IC50 w/o) was > 100 nM, the IC50 (SUM149 [3]; SUM149, read-out: SUM149 IC50 w legumain) was > 100 nM and the IC50 (SUM149 [3]; SUM149, read-out: SUM149 IC50 w/o) was > 100 nM.

For `CC[C@@]1(O)C(=O)OCc2c1cc1n(c2=O)Cc2c-1nc1cc(F)c(C)c3c1c2[C@@H](NC(=O)[C@H](CC(N)=O)NC(=O)[C@H](C)N(C)C(=O)[C@H](C)NC(=O)Cc1ccncc1)CC3` [Compound 11, N-[(pyridin-4-yl)acetyl]-L-alanyl-N-methyl-L-alanyl-N^1-[(1S,9S)-9-ethyl-5-fluoro-9-hydroxy-4-methyl-10,13-dioxo-2,3,9,10,13,15-hexahydro-1H, 12H-benzo[de]pyrano [3′,4′:6,7]indolizino [1,2-b]quinolin-1-yl]-L-aspartamide], the IC50 (HT29 [1]; HT-29, HT29 cells, with legumain, read-out: HT29 IC50 w legumain) was > 100 nM, the IC50 (HT29 [1]; HT-29, HT29 cells, without legumain, read-out: HT29 IC50 w/o) was > 100 nM and the IC50 (NCI H292 [2]; NCI H292 cells, with legumain, read-out: NCI H292 IC50 w legumain) was 11 to 100 nM. It also gave an IC50 (NCI H292 [2]; NCI H292 cells, without legumain, read-out: NCI H292 IC50 w/o) of 11 to 100 nM, an IC50 (SUM149 [3]; SUM149 cells, with legumain, read-out: SUM149 IC50 w legumain) of 1.1 to 10 nM and an IC50 (SUM149 [3]; SUM149 cells, without legumain, read-out: SUM149 IC50 w/o) of 1.1 to 10 nM.

With `CCN(CC)[C@H]1CCc2c(C)c(F)cc3nc4c(c1c23)Cn1c-4cc2c(c1=O)COC(=O)[C@]2(O)CC` [Compound 17, (1S,9S)-1-(diethylamino)-9-ethyl-5-fluoro-9-hydroxy-4-methyl-1,2,3,9,12,15-hexahydro-10H,13H-benzo[de]pyrano[3′,4′:6,7]indolizino[1,2-b]quinoline-10,13-dione] the IC50 (786-O [4]; with 10 nM elastase, read-out: 786-O IC50 w elastase) was 1.1 to 10 nM, the IC50 (786-O [4]; without elastase, read-out: 786-O IC50 w/o) was 1.1 to 10 nM and the IC50 (HT29 [5]; with 10 nM elastase, read-out: HT29 IC50 w elastase) was 1.1 to 10 nM. It also gave an IC50 (HT29 [5]; without elastase, read-out: HT29 IC50 w/o) of 1.1 to 10 nM, an IC50 (NCI H292 [6]; with 10 nM elastase, read-out: NCI H292 IC 50 w elastase) of 1.1 to 10 nM and an IC50 (NCI H292 [6]; without elastase, read-out: NCI H292 IC 50 w/o) of 1.1 to 10 nM. For the same compound, the IC50 (SUM149 [7]; with 10 nM elastase, read-out: SUM149 IC50 w elastase) was 0.1 to 1 nM, the IC50 (SUM149 [7]; without elastase, read-out: SUM149 IC50 w/o) was 0.1 to 1 nM and the AC50 (786-O [8]; with elastase, read-out: 786-O AC50 +elastase) was 1.1 to 10 nM. For the same compound, the AC50 (786-O [8]; without elastase, read-out: 786-O AC50 −elastase) was 1.1 to 10 nM, the AC50 (HT29 [9]; with elastase, read-out: HT29 AC50 +elastase) was 11 to 100 nM and the AC50 (HT29 [9]; without elastase, read-out: HT29 AC50 −elastase) was 11 to 100 nM. It also gave an AC50 (NCI H292 [10]; with elastase, read-out: NCI H292 AC50 +elastase) of 1.1 to 10 nM, an AC50 (NCI H292 [10]; without elastase, read-out: NCI H292 AC50 −elastase) of 1.1 to 10 nM and an AC50 (SUM149 [11]; with elastase, read-out: SUM149 AC50 +elastase) of 1.1 to 10 nM. It also gave an AC50 (SUM149 [11]; without elastase, read-out: SUM149 AC50 −elastase) of 1.1 to 10 nM, a Papp A→B at 2 h (in vitro) of 10 to 99.9 ×10⁻⁶ cm/s and an efflux ratio at 2 h (in vitro) of 0.5 to 2.

For `CC[C@@]1(O)C(=O)OCc2c1cc1n(c2=O)Cc2c-1nc1cc(F)c(C)c3c1c2[C@@H](NC(=O)CO)CC3` [Ref 2, DXd, reference compound], the “Caco-2 Flux Papp A-B” value (Caco-2 cells) was “AA (AA: 1-9)” and the “Caco-2 Flux Efflux ratio” value (Caco-2 cells) was “A (A: actively transported)”.

For `CC[C@@]1(O)C(=O)OCc2c1cc1n(c2=O)Cc2cc3cc4c(cc3nc2-1)OCO4` [Ref 3, 10,11-methylenedioxy-camptothecin, reference compound], the “Caco-2 Flux Papp A-B” value (Caco-2 cells) was “CC (CC: 100-999)” and the “Caco-2 Flux Efflux ratio” value (Caco-2 cells) was “B (B: not actively transported)”.

With “exatecan mesylate [Ref 1, reference compound]” the “Caco-2 Flux Papp A-B” value (Caco-2 cells) was “CC (CC: 100-999)” and the “Caco-2 Flux Efflux ratio” value (Caco-2 cells) was “B (B: not actively transported)”.
